Source: US20260137687A1, “GTPase INHIBITORS AND USES THEREOF” (The Regents of The University of California, priority 2022, published 2026)

What was measured:
K-Ras G12D = K-Ras G12D (Homo sapiens, UniProt P01116, G12D); assay: Intact protein mass spectrometry, covalent modification; format: binding; conditions: extended incubation at pH 7.5; 50 μM, 16 h
Protocol: (§1) Purified K-Ras variants (4 μM final) were incubated with compounds at 50 or 100 μM (1% v/v DMSO final) in 20 mM HEPES pH 7.5, 150 mM NaCl, 1 mM MgCl2 in a total volume of 150 μL. After the noted time, the samples were analyzed by intact protein LC/MS using a Waters Xevo G2-XS system equipped with an Acquity UPLC BEH C4 1.7 μm column. The mobile phase was a linear gradient of 5-95% acetonitrile/water+0.05% formic acid. The spectra were processed using QuantLynx, giving the ion counts observed for the most abundant species. For assays conducted under an alternate pH, the HEPES buffer was replaced with one of the following buffers (maintaining 150 mM NaCl and 1 mM MgCl2): 20 mM MES pH 6 or 20 mM Tris pH 9.

K-Ras G12V = K-Ras G12V (Homo sapiens, UniProt P01116, G12V); assay: as above; format: binding; conditions: extended incubation at pH 7.5; 50 μM, 16 h
Protocol: as §1

K-Ras Q61K = K-Ras Q61K (Homo sapiens, UniProt P01116, Q61K); assay: as above; format: binding; conditions: extended incubation at pH 7.5; 50 μM, 16 h
Protocol: as §1

K-Ras Q61L = K-Ras Q61L (Homo sapiens, UniProt P01116, Q61L); assay: as above; format: binding; conditions: extended incubation at pH 7.5; 50 μM, 16 h
Protocol: as §1

K-Ras Q61R = K-Ras Q61R (Homo sapiens, UniProt P01116, Q61R); assay: as above; format: binding; conditions: extended incubation at pH 7.5; 50 μM, 16 h
Protocol: as §1

K-Ras(G12R)·GDP = target: T1, K-Ras(G12R)·GDP (Homo sapiens, UniProt P01116, G12R); assay: as above; format: binding; conditions: for reaction rate with K-Ras(G12R)·GDP: 50 μM
T1 construct: human K-Ras (G12R, aa 1-169); 6xHis tag + TEV cleavage site (N, cleaved yes); made in house; host or cells: E. coli BL21(DE3)
Protocol: as §1

K-Ras(G12R)·GppNHp = target: T2, K-Ras(G12R)·GppNHp (Homo sapiens, UniProt P01116, C118S/C51S/C80L/G12R); assay: as above; format: binding; conditions: after 72 h; 50 μM
T2 construct: human K-Ras G12R Cyslight (G12R/C51S/C80L/C118S, aa 1-169); 6xHis tag + TEV cleavage site (N, cleaved yes); made in house; host or cells: E. coli BL21(DE3)
Protocol: as §1

wildtype (WT) K-Ras·GDP = target: T3, wildtype (WT) K-Ras·GDP (Homo sapiens, UniProt P01116); assay: as above; format: binding; conditions: extended incubation at pH 7.5; 50 μM
T3 construct: human K-Ras (wildtype, aa 1-169); 6xHis tag + TEV cleavage site (N, cleaved yes); made in house; host or cells: E. coli BL21(DE3)
Protocol: as §1

K-Ras(G12R) = K-Ras(G12R) (Homo sapiens, UniProt P01116, G12R); assay: Sos- or EDTA-mediated nucleotide exchange assay; format: biochemical; set-up: human K-Ras (G12R, aa 1-169); 6xHis tag + TEV cleavage site (N, cleaved yes); made in house; host or cells: E. coli BL21(DE3); conditions: BODIPY-GDP exchanged for unlabeled GDP; compound-bound K-Ras(G12R)
Protocol: This assay was performed as previously reported (38-41) with slight modifications. BODIPY-GDP-loaded K-Ras proteins were prepared freshly as follows. To a 10 μM solution of K-Ras(G12R)·GDP or K-Ras(G12R)·GDP·3 in SEC Buffer (1 mL) was added sequentially BODIPY-GDP (5 mM, 40 μL, Thermo Fisher, final concentration 200 μM) and Na-EDTA pH 8.0 (0.5 M, 5 μL, final concentration 2.5 mM). The mixture was incubated at 23° C. for 1 h, and a solution of MgCl2 (1.0 M, 20 μL, […]) was added to the reaction mixture. The protein solution was run through a PD-10 column to remove the excess nucleotide following the manufacturer's protocol. Briefly, sample (˜1.0 mL) and excess buffer (1.5 mL) were loaded onto the column (equilibrated with NucEx Buffer), and desalted protein was eluted with NucEx Buffer (3.5 mL). Desalted protein was diluted 1:1 to a concentration of roughly 1.5 μM in NucEx Buffer. 12 μL of this solution (triplicate for each condition) was added to wells of a black 384-well low-volume assay plate (Corning 4514). […] The plate was immediately placed in a TECAN Spark 20M plate reader, and fluorescence for BODIPY (excitation 488 nm, emission 520 nm) was read every 30 s over 1 h. Fluorescence intensity was normalized to values at time 0 and plotted again time. […]

## CC(=O)C(O)(O)C(=O)N1[C@@H]2CC[C@H]1CN(c1nc(OCC34CCCN3CCC4)nc3c(F)c(-c4cccc5cccc(Cl)c45)ncc13)C2 [compound 3, 1-((1R,5S)-3-(7-(8-chloronaphthalen-1-yl)-8-fluoro-2-((tetrahydro-1H-pyrrolizin-7a(5H)-yl)methoxy)pyrido[4,3-d]pyrimidin-4-yl)-3,8-diazabicyclo[3.2.1]octan-8-yl)-2,2-dihydroxybutane-1,3-dione]
K-Ras G12D
  covalent modification of K-Ras G12D: did not modify
K-Ras G12V
  covalent modification of K-Ras G12V: did not modify
K-Ras Q61K
  covalent modification of K-Ras Q61K: did not modify
K-Ras Q61L
  covalent modification of K-Ras Q61L: did not modify
K-Ras Q61R
  covalent modification of K-Ras Q61R: did not modify
K-Ras(G12R)·GDP
  modification of surface exposed arginines of K-Ras: not modified
K-Ras(G12R)·GDP; 100 μM compound, pH 7.5, 23° C., adducts +656 Da and +638 Da
  covalent adduct formation with recombinant K-Ras(G12R)·GDP: stoichiometric covalent adduct
K-Ras(G12R)·GDP; pH 6
  reaction rate with K-Ras(G12R)·GDP: greatly reduced rate
K-Ras(G12R)·GDP; pH 8
  reaction rate with K-Ras(G12R)·GDP: reached maximum
K-Ras(G12R)·GDP; pH 9
  reaction rate with K-Ras(G12R)·GDP: did not further increase
K-Ras(G12R)·GDP; purified adduct incubated at pH 7.5 for 7 days at 23° C.
  reversibility of adduct formation: irreversible
K-Ras(G12R)·GppNHp
  modification of K-Ras(G12R)·GppNHp: < 5%
Wildtype (WT) K-Ras·GDP
  covalent modification of wildtype K-Ras·GDP: did not modify
K-Ras(G12R)
  Sos-mediated nucleotide exchange: inhibited
  rate of EDTA-mediated nucleotide exchange: significantly reduced
